Data taken from patent publication EP2386565A2, “Compounds and methods to inhibit or augment an inflammatory response” (Cambridge Enterprise Ltd., priority 1999, dated 2000).
Positions of bridges follow the written chain, without caps; N, C: chain ends. Non-standard residues stand in square brackets, D forms with d. Residues, ends and D or L forms follow the SMILES beside them.

How the values were obtained:
[1] = tested on: SDF-1 induced calcium flux; experiment: Intracellular calcium flux, SDF-1 as agonist; format: cell-based
THP-1 cells = experiment: Agonist activity: agent in the lower compartment of the migration chamber; format: cell-based, human
Excerpt: Agents with agonist activity may also be identified using the transwell migration assay, where the cells are placed in the upper compartment (see Figure 1) in the absence of agent, and the agent, e.g. peptide 2[MCP-1], is placed at varying concentrations in the lower compartment in place of the chemokine. […] Preferably, agents having agonist activity also stimulate migration of primary human cells, e.g., monocytes, in a transwell migration assay.
To evaluate the agonist activity ofCRD-Leu4Ile11Cys13 peptide 3(3-12)[MCP-1], CRD-Leu4Ile11Cys13 peptide 3(3-12)[MCP-1] was placed in the lower compartment of the migration chamber at various concentrations and 50,000 THP-1 cells were placed in the upper compartment. The number of cells in the lower compartment after 4 hours was then determined using the vital dye MTT. […] At higher concentrations (1 µM and 10 µM), there may be a small stimulation of migration in this experiment, although the magnitude of this migratory response was less than that seen with 3.25 ng/ml recombinant MCP-1. CRD-Leu4Ile11Cys13 peptide 3(3-12)[MCP-1] is unlikely to have any agonist activity that is significant at concentrations attainable in vivo.

[2] = tested on: antigen specific antibody recall response; experiment: Antigen (scFv) recall response, safety and serum levels after single i.v. dose; format: in vivo, Cynomolgus monkeys
Method: Cynomolgus monkeys were immunized with antigen that is a single chain Fv (scFv) protein. Each animal previously received 3 i.v. injections of the antigen and all developed high serum titers. Five animals were randomly divided into 2 groups. Two animals served as PBS treated controls and 3 were treated i.v. with 50 mg/kg CRD-Leu4Ile11Cys13 peptide 3(3-12)[MCP-1]. Thirty minutes following CRD-Leu4Ile11Cys13 peptide 3(3-12)[MCP-1] treatment all animals were challenged i.v. with 3.5 mg/kg antigen. In addition, animals were challenged intradermal with each of the following in a volume of 50 µl:PBS; 50 µg antigen; 5 µg antigen; 0.5 µg antigen; 500 ng MCP-1; or 50 ng LPS. Serum was collected at 10 minutes, 30 minutes, 60 minutes, 4 hours, and 24 hours. Animals were sacrificed 24 hours after CRD-Leu4Ile11Cys13peptide 3(3-12)[MCP-1] injection and complete necropsy performed and tissues fixed for histopathology. Fixed and frozen skin samples were harvested for histopathology and immunohistochemistry. Blood, spleen, and lymph node were harvested for assessment of cell function in migration assay, proliferation assay, and antigen specific antibody and cytokine recall. Blood was also analyzed pre- and post-CRD-Leu4Ile11Cys13 peptide 3(3-12)[MCP-1] injection for hematology parameters and serum chemistry. Serum levels were evaluated by an LC-MS method (limit of quantitation = 1 µg/ml) pre-treatment and then at 10 minutes, 30 minutes, 60 minutes, 4 hours and 20-24 hours after injection. Urinalysis was performed pre- and post-CRD-Leu4Ile11Cys13 peptide 3(3-12)[MCP-1] injection.

Modified LD50 technique = format: in vivo, mouse; settings: 11 mg i.p.
[3] = tested on: TGFβ1 induced THP-1 migration; experiment: THP-1 trans-well migration assay, TGFβ1 as non-chemokine control chemoattractant; format: cell-based, human; settings: for % inhibition at 100 µM versus TGFβ1: THP-1 migration, agent at 100 µM, n.s. = no statistically significant inhibition
Method: Any method suitable for counting cells can be used, for example, counting with a hemocytometer, incubation of the cells with MTT (see above), or FACS analysis. A negative control assay is also performed, using TGF-β or another non-chemokine chemoattractant (e.g., IL1β or TNFα). To assess whether the agent is cytotoxic, the same concentrations of agent are incubated with THP-1 cells. Agents which 1) are not cytotoxic at levels which inhibit migration, 2) are ineffective at inhibiting the negative control-induced migration, and 3) reduce or inhibit chemokine-induced THP-1 migration, are agents which fall within the scope of the invention.
For this assay, THP-1 cells were maintained at a density of 4 × 10^5 cells per ml in RPMI-1640 supplemented with 10% fetal calf serum + 20 µM 2-mercaptoethanol. Chemotaxis was induced in a 96-well disposable chemotaxis chamber fitted with a 5 µM polycarbonate filter (PVP free, ChemoTX, Neuroprobe Inc., Cabin John). Twenty-nine µl of chemoattractant (recombinant human chemokine; 50 ng/ml, i.e., 5.9 nM) or control (100 ng/ml TGFβ) was added to the lower compartment of each well. The framed filter was aligned with the holes in the corner of the filter frame and placed over the wells.
Five × 10^4 THP-1 cells in 25 µl of RPMI-1640 were added to the upper compartment. Peptides were dissolved in Milli Q water and then serially diluted in culture medium. […]
After incubation, the cells were gently removed from the top of the filter with a pipette, 20 µl of 20 mM EDTA in PBS was added into each top well, and the mixture was incubated for 20 minutes at 4°C. […] A standard curve was prepared to accurately quantify the number of THP-1 cells that had migrated. […] Absorbance of converted dye was measured at a wavelength of 595 nm using an ELISA plate reader. The number of cells that had migrated in each well was determined by interpolation of the standard curve.
To investigate the receptor specificity of peptide 3 inhibition, the ED50 was determined for peptide 3(1-12)[MCP-1] […]

SMILES	SDF-1 induced calcium flux (in words) [1]	agonist activity (in words) (THP-1 cells)	hematology and serum chemistry (in words) ([2]; 50 mg/kg i.v.)	period with detectable drug levels in serum after treatment ([2]; 50 mg/kg i.v.)	antigen specific antibody in recall responses of splenocytes, lymph node cells and PBL (in words) ([2]; single i.v. dose 50 mg/kg)	lethality after intraperitoneal administration (in words) (Modified LD50 technique)	% inhibition at 100 µM versus TGFβ1 [3]	% inhibition at 100 µM versus TGFβ1 ([3]; listed as peptide 1[MCP-1])	ED50 (µM) versus TGFβ1 ([3]; inhibition of THP-1 migration, n.s. = not statistically significant)
CC[C@@H](C)[C@H]1NC(=O)[C@@H](CCC(N)=O)NC(=O)[C@H](N)CSSC[C@H](C(N)=O)NC(=O)[C@@H](CC(C)C)NC(=O)[C@@H](CC(=O)O)NC(=O)[C@H]2CCCN2C(=O)[C@@H](CCCCN)NC(=O)[C@@H](CCC(N)=O)NC(=O)[C@@H](CCCCN)NC(=O)[C@@H](Cc2c[nH]c3ccccc23)NC1=O (H-[dC][dQ][dI][dW][dK][dQ][dK][dP][dD][dL][dC]-NH2; disulfide 1-11)	did block	No agonist activity was detected	No clinically significant changes	4 h	lowest detectable levels of antigen specific antibody	did not result in lethality	–	–	–
CC[C@H](C)[C@H](NC(=O)[C@H](C)NC(=O)[C@H](CC(=O)O)NC(=O)[C@@H]1CCCN1C(=O)[C@H](CCC(N)=O)NC(=O)[C@H](C)N)C(=O)N[C@@H](CC(N)=O)C(=O)N[C@@H](C)C(=O)N1CCC[C@H]1C(=O)N[C@H](C(=O)N[C@H](C(=O)N[C@@H](CS)C(=O)N[C@@H](CS)C(=O)O)[C@@H](C)O)C(C)C [Peptide 1] (H-AQPDAINAPVTCC-OH; N-terminus and C-terminus assumed)	–	–	–	–	–	–	n.s.	did not significantly inhibit	n.s.
